The values below come from patent publication US7589170B1, “Synthesis of cyclic peptides” (priority 1998, dated 2009).

For series [1] the following is noted: the molecule shown is the open-chain precursor, amide bond, 15-membered ring.
Series [2] deals with sympathetic varicosities of the mouse vas deferens. The series can be described thus: focal extracellular recording of evoked excitatory junction currents (EJC, measure of transmitter release). The class given is cell-based. As for the experimental part: Each filled circle represents an EJC recorded during 100 minutes. Failure to record an EJC is indicated by filled circles on zero of the y-axis. The lower horizontal line indicates when the mixture of cyclic tetrapeptides (1 μM) was applied to the tissue bathing solution and the upper horizontal line when naloxone (1 μM) was added to the tissue bathing solution. […] Cyclo [Tyr-Arg-Phe-Gly] is SEQ ID NO:42.
Each bar is the average of at least 60 recordings, and the vertical lines show the standard deviation of the mean. […] Cyclo [Tyr-Arg-Phe-Gly] is SEQ ID NO:42.
Demorphin is a opioid heptapeptide isolated from the skin of South American frogs, and has the following sequence; {H-Tyr-D-Ala-Phe-Gly-Tyr-Pro-Ser-NH2; SEQ ID NO:71). The tetrapeptide analogues (H-Tyr-D-Ala-Phe-Gly-NH-Y; SEQ ID NO:29) are potent analgesics when administered by intracerebroventricular injection. In Example 3 we synthesised the cyclic tetrapeptides cyclo[Tyr-Arg-Phe-Gly] (SEQ ID NO:42) and cyclo[Tyr-Arg-D-Phe-Gly] (SEQ ID NO:42) designated WP 152 using our combination strategies.

Series [3] in a line: stability to heating in DMSO. It counts as physicochemical. The settings on record: 20 h at 70° C. in DMSO.
Series [4] can be described thus: stability to hydrolysis in aqueous buffer at pH 9. It counts as physicochemical.
[5] abbreviates: from H-(Hnb)Tyr-Arg-(Hnb)Phe-Ala-OH, amide bond, 12-membered ring.
Setting [6] is: amide bond, 21-membered ring, BOP/2,6-lutidine, resin, -10.0 °C, with chain assembly.
The mark [7] stands for this setting: amide bond, DIEA, DMF, resin, with chain assembly.
The mark [8] stands for this setting: amide bond, 16-membered ring, HATU/DIEA, DMF, resin, with chain assembly.

Entries after “also recorded” stand apart in the source; their conditions may differ. Read-outs that look alike come from different tables or passages of the source.

In series [1] (BOP/DIEA), H-Ala-Phe-Leu-Pro-Ala-OH? displayed a ring closure, conversion of 0%.

Take `N=C(N)NCCC[C@H]1C(=O)N[C@@H](Cc2ccccc2)C(=O)N(Cc2c(O)cccc2[N+](=O)[O-])CC(=O)N[C@@H](Cc2ccc(O)cc2)C(=O)N1Cc1c(O)cccc1[N+](=O)[O-]` [H-(Hnb)Gly-Tyr-(Hnb)Arg-Phe-OH?]: where the note is “from H-(Hnb)Gly-Tyr-(Hnb)Arg-Phe-OH?, amide bond, 12-membered ring, BOP/DIEA, DMF, 1.18 mM”, the ring closure, yield after HPLC was 68%.

The compound `CN1CC(=O)NCC(=O)N(C)CC(=O)N(C)CC1=O` [H-Gly-MeGly-MeGly-MeGly-OH] registered a ring closure, yield after HPLC (from H-Gly-MeGly-MeGly-MeGly-OH, amide bond, 12-membered ring, BOP/DIEA, DMF, 1.0 mM) of 5%.

Turning to cyclo-[D-G-Amb-R-G], the ring closure, yield after HPLC (amide bond, DIPEA, DMF, resin, with chain assembly) worked out at 49%.

In turn, Cyclo-(SCH2CH2-Gly-Arg-Pro-Phe-Gly) gave a ring closure, yield after HPLC (other bond, 18-membered ring, BOP/DIEA, DMF, 1.0 mM, -10.0 °C) of 31%.

In the case of `C[C@@H]1NC(=O)[C@H](Cc2ccccc2)N(Cc2c(O)cccc2[N+](=O)[O-])C(=O)[C@H](CCCNC(=N)N)NC(=O)[C@H](Cc2ccc(O)cc2)N(Cc2c(O)cccc2[N+](=O)[O-])C1=O` [cyclo-[(Hnb)Tyr-Arg-(Hnb)Phe-Ala]], the ring closure, yield after HPLC under setting [5] was 13%.

On to `C=CCN1CC[C@]23c4c5ccc(O)c4O[C@H]2C(=O)CC[C@@]3(O)[C@H]1C5` [naloxone, reference compound], for which the “effect of naloxone on the EJC reduction caused by the cyclic tetrapeptide mixture” value in series [2] (naloxone 1 μM added to the tissue bathing solution with the tetrapeptide mixture (1 μM)) is on record as “inhibits this effect; also recorded: reversed”.

As to “cyclo[Tyr-Arg-Phe-Gly] (SEQ ID NO:42) and cyclo[Tyr-Arg-D-Phe-Gly] (SEQ ID NO:42) [WP 152]”, in series [2] (1 μM in tissue bathing solution, EJCs recorded during 100 minutes (FIG. 10)), the “EJC amplitude and frequency” value was “greatly reduces the EJC amplitude and frequency”. The “average excitatory junction current (EJC) amplitude and frequency” value in series [2] (1 μM, following 20 minutes of exposure, each bar average of at least 60 recordings (FIG. 11)) is “highly significant decrease”. The transmitter release result in series [2] (FIGS. 10 and 11, mixture of compounds) was “greatly reduces transmitter release”. Besides, the “opiate agonism inferred from reversal by naloxone” value in series [2] (one or both of the compounds, strongly suggested, not measured directly) is “potent μ-opiate agonists”.

Regarding `CN1CC(=O)NCC(=O)N(C)CC(=O)NCC1=O` [H-Gly-MeGly-Gly-MeGly-OH], the ring closure, yield after HPLC (from H-Gly-MeGly-Gly-MeGly-OH, amide bond, 12-membered ring, BOP/DIEA, DMF, 1.0 mM) was 2%.

`CC(C)C[C@@H]1NC(=O)[C@H](Cc2ccccc2)NC(=O)[C@H](C)N(Cc2c(O)cccc2[N+](=O)[O-])C(=O)[C@H](C)NC(=O)[C@@H]2CCCN2C1=O` [Cyclo-[N-(6-nitro-2-hydroxybenzyl)-Ala-Phe-Leu-Pro-Ala]] displayed a ring closure, yield after HPLC (from H-(6-nitro-2-hydroxybenzyl)Ala-Phe-Leu-Pro-Ala-OH, amide bond, 15-membered ring, BOP/DIEA, DMF, 1.0 mM, 25.0 °C) of 39%.

In the case of `CN1CC(=O)NCC(=O)NCC(=O)N(C)CC1=O` [H-Gly-MeGly-MeGly-Gly-OH], the ring closure, yield after HPLC (from H-Gly-MeGly-MeGly-Gly-OH, amide bond, 12-membered ring) came to 13%.

As for Cyclo-[DGCatRG], the ring closure, yield after HPLC (amide bond, 16-membered ring, DIEA, DMF, resin, with chain assembly) was 11%.

Cyclo-(Pro-Phe-Asn-Ser-Leu-Ala-Ile) had a ring closure, yield after HPLC under setting [6] of 10%.

For `CN1CC(=O)NCC(=O)NCC(=O)N(C)CC1=O` [H-Gly-Gly-MeGly-MeGly-OH], under “from H-Gly-Gly-MeGly-MeGly-OH, amide bond, 12-membered ring”, the ring closure, yield after HPLC came to 18%.

With “cyclo-[(Hnb)Tyr-Arg-(Hnb)Phe-Ala] [Product B]”, the stability to heat entry in series [3] is listed as “Stable to heat”. Moreover, the stability to hydrolysis entry in series [4] is “Stable”.

For `C[C@H]1C(=O)N[C@@H](Cc2ccc(O)cc2)C(=O)N(Cc2c(O)cccc2[N+](=O)[O-])[C@@H](CCCNC(=N)N)C(=O)N[C@@H](Cc2ccccc2)C(=O)N1Cc1c(O)cccc1[N+](=O)[O-]` [H-(Hnb)Ala-Tyr-(Hnb)Arg-Phe-OH], the ring closure, yield after HPLC (from H-(Hnb)Ala-Tyr-(Hnb)Arg-Phe-OH, amide bond, 12-membered ring, BOP/DIEA, DMF, 1.0 mM, 25.0 °C) stood at 53%.

Where the note is “from H-Pro-Phe-Asn-Ser-Leu-Ala-Ile-OH, amide bond, 21-membered ring, BOP/DIPEA, DMF, -10.0 °C”, `CC[C@H](C)[C@@H]1NC(=O)[C@H](C)NC(=O)[C@H](CC(C)C)NC(=O)[C@H](CO)NC(=O)[C@H](CC(N)=O)NC(=O)[C@H](Cc2ccccc2)NC(=O)[C@@H]2CCCN2C1=O` [cyclo-(Pro-Phe-Asn-Ser-Leu-Ala-Ile)] registered a ring closure, yield after HPLC of 67%.

In turn, `O=C1CNC(=O)CNC(=O)CNC(=O)CN1` [H-Gly-Gly-Gly-Gly-OH] showed a ring closure, yield after HPLC (from H-Gly-Gly-Gly-Gly-OH, amide bond, 12-membered ring, BOP/DIEA, DMF, 1.0 mM) of 1%.

cyclo-[DAmbGRG] yielded a ring closure, yield after HPLC under setting [7] of 5%.

The compound Cyclo-[Leu-Asp-Val-Gly-β-Ala] had a ring closure, yield after HPLC under setting [8] of 18%.

Turning to `CN1CC(=O)NCC(=O)NCC(=O)NCC1=O` [H-Gly-MeGly-Gly-Gly-OH], the ring closure, yield after HPLC (from H-Gly-MeGly-Gly-Gly-OH, amide bond, 12-membered ring, BOP/DIEA, DMF, 1.0 mM) was 1%.

Compound Cyclo-[Phe-Lys-Trp-Gly-β-Ala] registered a ring closure, yield after HPLC under setting [8] of 15%.

`CN1CC(=O)NCC(=O)NCC(=O)NCC1=O` [H-Gly-Gly-MeGly-Gly-OH] gave a ring closure, yield after HPLC (from H-Gly-Gly-MeGly-Gly-OH, amide bond, 12-membered ring, BOP/DIEA, DMF, 1.0 mM) of 11%.

The compound `N=C(N)NCCC[C@H]1C(=O)N[C@@H](Cc2ccccc2)C(=O)NCC(=O)N(Cc2c(O)cccc2[N+](=O)[O-])[C@@H](Cc2ccc(O)cc2)C(=O)N1Cc1c(O)cccc1[N+](=O)[O-]` [Cyclo-[(Hnb)Tyr-(Hnb)Arg-Phe-Gly]] came in with a ring closure, yield after HPLC (from H-(Hnb)Tyr-(Hnb)Arg-Phe-Gly-OH?, amide bond, 12-membered ring, BOP/DIEA, DMF, 1.1 mM, 25.0 °C) of 61%.

Take `CN1CC(=O)NCC(=O)NCC(=O)NCC1=O` [H-Gly-Gly-Gly-MeGly-OH]: the ring closure, yield after HPLC (from H-Gly-Gly-Gly-MeGly-OH, amide bond, 12-membered ring, BOP/DIEA, DMF, 1.0 mM) was determined as 8%.

`COc1ccc(CN2CC(=O)NCC(=O)NCC(=O)N(Cc3ccc(OC)cc3O)CC2=O)c(O)c1` [H-Gly-(HMB)Gly-(HMB)Gly-Gly-OH] returned a ring closure, yield after HPLC (from H-Gly-(HMB)Gly-(HMB)Gly-Gly-OH, amide bond, 12-membered ring, BOP/DIEA, DMF, 1.0 mM) of 16%.

As to “cyclo-[(Hnb)Tyr-Arg-(Hnb)Phe-(D)Ala] [Product A]”, the stability to heat result in series [3] is reported as “Unstable to heat”. Moreover, the stability to hydrolysis entry in series [4] was “Stable to hydrolysis”.

As to cyclo-(Pro-Phe-Asn-Ser-Leu-Ala-Ile), the ring closure, yield after HPLC under setting [6] was determined as 25%.

Consider `CC(C)C[C@@H]1NC(=O)[C@H](Cc2ccccc2)NC(=O)[C@H](C)N(Cc2cc([N+](=O)[O-])ccc2O)C(=O)[C@H](C)NC(=O)[C@@H]2CCCN2C1=O` [Cyclo-[N-(5-nitro-2-hydroxybenzyl)-Ala-Phe-Leu-Pro-Ala]], for which the ring closure, yield after HPLC (from H-(5-nitro-2-hydroxybenzyl)Ala-Phe-Leu-Pro-Ala-OH, amide bond, 15-membered ring, BOP/DIEA, DMF, 1.0 mM, 25.0 °C) stood at 51%.

`C[C@@H]1NC(=O)[C@H](Cc2ccccc2)N(Cc2c(O)cccc2[N+](=O)[O-])C(=O)[C@H](CCCNC(=N)N)NC(=O)[C@H](Cc2ccc(O)cc2)N(Cc2c(O)cccc2[N+](=O)[O-])C1=O` [Cyclo-[(Hnb)Tyr-Arg-(Hnb)Phe-Ala]]: the ring closure, yield after HPLC (from H-(Hnb)Tyr-Arg-(Hnb)Phe-Ala-OH?, amide bond, 12-membered ring) came out at 60%.

The compound `CC[C@H](C)[C@@H]1NC(=O)[C@H](C)NC(=O)[C@H](CC(C)C)NC(=O)[C@H](CO)NC(=O)[C@H](CC(N)=O)NC(=O)[C@H](Cc2ccccc2)NC(=O)[C@@H]2CCCN2C1=O` [Cyclo-(Pro-Phe-Asn-Ser-Leu-Ala-Ile)] displayed a ring closure, yield after HPLC (from H-Asn-Ser-Leu-Ala-Ile-Pro-Phe-OH, amide bond, 21-membered ring, BOP/DIPEA, DMF, 1.0 mM, -10.0 °C) of 48%.

Compound cyclo-[DGAmbRG] came in with a ring closure, yield after HPLC under setting [7] of 7.6%.

As for H-Ala-Phe-Leu-Pro-Ala-O-linker-resin?, the ring closure, conversion in series [1] (resin) worked out at 0%.

As for `CC(C)C[C@@H]1NC(=O)[C@H](Cc2ccccc2)N(Cc2c(O)cccc2[N+](=O)[O-])C(=O)[C@H](C)NC(=O)[C@H](C)NC(=O)[C@@H]2CCCN2C1=O` [Cyclo-[N-(6-nitro-2-hydroxybenzyl)-Phe-Leu-Pro-Ala-Ala]], under “from H-(6-nitro-2-hydroxybenzyl)Phe-Leu-Pro-Ala-Ala-OH, amide bond, 15-membered ring, BOP/DIEA, DMF, 1.0 mM, 25.0 °C”, the ring closure, yield after HPLC came to 44%.

Cyclo-[Arg-Gly-Asp-Gly-β-Ala]: the ring closure, yield after HPLC under setting [8] was 9%.

For `C[C@@H]1NC(=O)[C@H](Cc2ccccc2)N(Cc2c(O)cccc2[N+](=O)[O-])C(=O)[C@H](CCCNC(=N)N)NC(=O)[C@H](Cc2ccc(O)cc2)N(Cc2c(O)cccc2[N+](=O)[O-])C1=O` [cyclo-[(Hnb)Tyr-Arg-(Hnb)Phe-(D)Ala]], under setting [5], the ring closure, yield after HPLC is 18%.
